Each block holds one molecule with its values, some of them ahead of it.
Key:
physchem = settings: 1-octanol/phosphate buffered saline, pH 7.4
in vitro = settings: human, liver microsomes
cells = settings: Homo sapiens, Th17, 96 h
[1] = Intrinsic permeability of compound from apical to basolateral side in human Caco2 cells; format: ADME, cell-based; settings: Caco-2
[2] = Apparent permeability across apical to basolateral side in human Caco-2 cells; format: ADME, cell-based
[3] = biological target: Voltage-gated inwardly rectifying potassium channel KCNH2 (Homo sapiens, UniProt Q12809)
Mus musculus [4] = species on record: Mus musculus; test: animal or person; settings: C57BL/6NCrl, sc, 168 h, read-out: INH
[5] = Oral bioavailability in Han Wistar rat at 50 mg/kg using crystaline form of sample; format: ADME, organism-based; settings: in vivo
[6] = Biliary clearance in Han Wistar rat at 1 mg/kg, iv; format: ADME, organism-based, Bile; settings: in vivo
[7] = Metabolic stability in dog hepatocytes assessed as intrinsic clearance measured per 10^6 cells; format: ADME, cell-based, Canis lupus familiaris, Hepatocyte; settings: read-out: CLH
[8] = Fraction absorbed in Han Wistar rat at 1 mg/kg, po using amorphous form of sample; format: ADME, organism-based; settings: in vivo, read-out: Fabs
[9] = Volume of distribution at steady state in C57BL/6 mouse at 1 mg/kg, iv; format: ADME, organism-based; settings: in vivo, read-out: Vdss
[10] = Total plasma clearance in Beagle dog at 1 mg/kg, iv; format: ADME, organism-based, Canis lupus familiaris
MDR1 [11] = test: Apparent permeability across apical to basolateral side in dog MDCK-MDR1 cells; format: ADME, cell-based, Canis lupus familiaris
[12] = Metabolic stability in mouse hepatocytes assessed as intrinsic clearance measured per 10^6 cells; format: ADME, cell-based, Hepatocyte; settings: read-out: CLH
[13] = Volume of distribution at steady state in Han Wistar rat at 0.5 mg/kg, iv; format: ADME, organism-based; settings: in vivo, read-out: Vdss
[14] = Fraction absorbed in C57BL/6 mouse at 2 mg/kg, po using amorphous form of sample; format: ADME, organism-based; settings: in vivo, read-out: Fabs
[15] = Fraction absorbed in Han Wistar rat at 50 mg/kg, po using EtOH form of sample; format: ADME, organism-based; settings: in vivo, read-out: Fabs
[16] = Fraction absorbed in Han Wistar rat at 50 mg/kg, po using crystaline form of sample; format: ADME, organism-based; settings: in vivo, read-out: Fabs
[17] = Fraction absorbed in Beagle dog at 10 mg/kg, po using crystaline form of sample; format: ADME, organism-based, Canis lupus familiaris; settings: in vivo, read-out: Fabs
[18] = Oral bioavailability in Beagle dog at 10 mg/kg using crystaline form of sample; format: ADME, organism-based, Canis lupus familiaris; settings: in vivo
[19] = Oral bioavailability in Han Wistar rat at 50 mg/kg using EtOH form of sample; format: ADME, organism-based; settings: in vivo
[20] = Half life in Han Wistar rat at 0.5 mg/kg, iv; format: ADME, organism-based; settings: in vivo
[21] = Oral bioavailability in Beagle dog at 3 mg/kg using amorphous form of sample; format: ADME, organism-based, Canis lupus familiaris; settings: in vivo
[22] = Oral bioavailability in Han Wistar rat at 1 mg/kg using amorphous form of sample; format: ADME, organism-based; settings: in vivo
Mus musculus [23] = species on record: Mus musculus; test: animal or person; settings: C57BL/6NCrl, sc, 168 h, read-out: INH; remark: listed apart in the source
[24] = Plasma protein binding in mouse assessed as unbound fraction by equilibrium dialysis; format: ADME, cell-free
[25] = Renal clearance in Han Wistar rat at 0.5 mg/kg, iv; format: ADME, organism-based, Kidney; settings: in vivo
[26] = Oral bioavailability in C57BL/6 mouse at 2 mg/kg using amorphous form of sample; format: ADME, organism-based; settings: in vivo
[27] = Half life in C57BL/6 mouse at 1 mg/kg, iv; format: ADME, organism-based; settings: in vivo
MDR1 [28] = test: Apparent permeability across basolateral to apical side in dog MDCK-MDR1 cells; format: ADME, cell-based, Canis lupus familiaris
[29] = Volume of distribution at steady state in Beagle dog at 1 mg/kg, iv; format: ADME, organism-based, Canis lupus familiaris; settings: in vivo, read-out: Vdss
[30] = Fraction absorbed in Beagle dog at 3 mg/kg, po using amorphous form of sample; format: ADME, organism-based, Canis lupus familiaris; settings: in vivo, read-out: Fabs
[31] = Plasma protein binding in dog assessed as unbound fraction by equilibrium dialysis; format: ADME, cell-free, Canis lupus familiaris
[32] = Apparent permeability across basolateral to apical side in human Caco-2 cells; format: ADME, cell-based
[33] = Total plasma clearance in C57BL/6 mouse at 1 mg/kg, iv; format: ADME, organism-based
[34] = Half life in Beagle dog at 1 mg/kg, iv; format: ADME, organism-based, Canis lupus familiaris; settings: in vivo
[35] = Total plasma clearance in Han Wistar rat at 1 mg/kg, iv; format: ADME, organism-based
[36] = Plasma protein binding in rat assessed as unbound fraction by equilibrium dialysis; format: ADME, cell-free

Voltage-gated inwardly rectifying potassium channel KCNH2, sequence (Q12809 whole entry): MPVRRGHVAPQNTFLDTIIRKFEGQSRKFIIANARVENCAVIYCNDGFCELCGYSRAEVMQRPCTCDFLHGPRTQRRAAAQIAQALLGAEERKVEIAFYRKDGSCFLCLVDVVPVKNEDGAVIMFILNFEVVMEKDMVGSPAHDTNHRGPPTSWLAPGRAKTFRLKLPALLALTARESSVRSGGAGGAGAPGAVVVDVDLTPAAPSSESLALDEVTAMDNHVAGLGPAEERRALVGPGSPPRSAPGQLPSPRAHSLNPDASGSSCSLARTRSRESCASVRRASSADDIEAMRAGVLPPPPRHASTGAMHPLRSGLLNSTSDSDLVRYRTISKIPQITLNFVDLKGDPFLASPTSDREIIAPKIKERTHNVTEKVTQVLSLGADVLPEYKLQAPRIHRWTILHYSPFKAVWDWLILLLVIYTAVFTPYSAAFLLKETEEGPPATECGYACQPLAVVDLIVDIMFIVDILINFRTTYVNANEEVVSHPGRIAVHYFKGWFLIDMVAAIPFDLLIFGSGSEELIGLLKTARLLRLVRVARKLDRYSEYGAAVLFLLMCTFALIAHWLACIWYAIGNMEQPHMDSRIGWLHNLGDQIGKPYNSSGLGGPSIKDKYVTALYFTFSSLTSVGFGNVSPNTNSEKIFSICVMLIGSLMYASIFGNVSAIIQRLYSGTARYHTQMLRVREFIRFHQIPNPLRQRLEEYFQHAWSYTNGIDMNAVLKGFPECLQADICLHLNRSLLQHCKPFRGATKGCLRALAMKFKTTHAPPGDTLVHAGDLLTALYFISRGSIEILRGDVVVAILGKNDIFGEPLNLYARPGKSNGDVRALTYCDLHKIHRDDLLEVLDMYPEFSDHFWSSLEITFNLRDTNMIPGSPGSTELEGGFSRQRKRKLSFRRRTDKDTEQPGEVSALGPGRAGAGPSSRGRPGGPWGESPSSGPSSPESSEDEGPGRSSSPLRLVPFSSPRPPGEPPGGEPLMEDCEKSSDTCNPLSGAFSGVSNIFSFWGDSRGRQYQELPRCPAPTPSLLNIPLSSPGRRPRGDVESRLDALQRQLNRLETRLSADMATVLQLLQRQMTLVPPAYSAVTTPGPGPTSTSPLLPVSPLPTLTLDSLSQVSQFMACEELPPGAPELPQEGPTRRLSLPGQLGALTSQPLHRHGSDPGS

logD (physchem): 2.9 | microsomal CLint (in vitro): < 3 µL/min/mg | IC50 (cells): 224 nM
SMILES: CCS(=O)(=O)c1ccc(C(Cc2nnco2)C(=O)Nc2ccc(C(O)(C(F)(F)F)C(F)(F)F)cc2)cc1 (stereo not given)

logD (physchem): 2.2 | microsomal CLint (in vitro): < 3 µL/min/mg
SMILES: CS(=O)(=O)c1ccc2c(c1)CN(C(=O)C1CCO1)C2C(=O)Nc1ccc(C(O)(C(F)(F)F)C(F)(F)F)cc1 (stereo not given)

logD (physchem): 2.5 | microsomal CLint (in vitro): < 3 µL/min/mg | Pm [1]: 7.7 | Papp A→B [2]: 0.7 ×10⁻⁶ cm/s | IC50 (cells): 63 nM
SMILES: CCS(=O)(=O)c1ccc(C(NC(C)=O)C(=O)Nc2ccc(C(O)(C(F)(F)F)C(F)(F)F)cc2)nc1 (stereo not given)

logD (physchem): 2.5 | microsomal CLint (in vitro): < 3 µL/min/mg
SMILES: CCS(=O)(=O)c1ccc2c(c1)CN(C(=O)CCC#N)C2C(=O)Nc1ccc(C(O)(C(F)(F)F)C(F)(F)F)cc1 (stereo not given)

logD (physchem): 2.9 | microsomal CLint (in vitro): < 3 µL/min/mg
SMILES: CCS(=O)(=O)c1ccc2c(c1)CN(C=O)C2C(=O)Nc1ccc(C(O)(C(F)(F)F)C(F)(F)F)cc1 (stereo not given)

logD (physchem): 2.3 | microsomal CLint (in vitro): < 3 µL/min/mg
SMILES: CS(=O)(=O)c1ccc2c(c1)CN(C(=O)CCC#N)C2C(=O)Nc1ccc(C(O)(C(F)(F)F)C(F)(F)F)cc1 (stereo not given)

logD (physchem): 3.5 | microsomal CLint (in vitro): 22 µL/min/mg | Pm [1]: 14.2 | Papp A→B [2]: 1.1 ×10⁻⁶ cm/s | IC50 (cells): 20 nM
SMILES: CCS(=O)(=O)c1ccc(C(NC(=O)CC2CC2)C(=O)Nc2ccc(C(O)(C(F)(F)F)C(F)(F)F)cc2)nc1 (stereo not given)
IC50 [3]: 34000 nM

logD (physchem): 2.4 | microsomal CLint (in vitro): < 3 µL/min/mg
SMILES: CC(=O)N1Cc2cc(S(C)(=O)=O)ccc2[C@H]1C(=O)Nc1ccc(C(O)(C(F)(F)F)C(F)(F)F)cc1

logD (physchem): 4 | microsomal CLint (in vitro): 21 µL/min/mg | Pm [1]: 29 | Papp A→B [2]: 0.9 ×10⁻⁶ cm/s
SMILES: CCS(=O)(=O)c1ccc(C(NC(=O)Cc2ccccc2)C(=O)Nc2ccc(C(O)(C(F)(F)F)C(F)(F)F)cc2)nc1 (stereo not given)
IC50 [3]: 16000 nM

logD (physchem): > 4 | microsomal CLint (in vitro): 16 µL/min/mg | Pm [1]: 44 | Papp A→B [2]: 2.6 ×10⁻⁶ cm/s | IC50 (cells): 360 nM
SMILES: CCS(=O)(=O)c1ccc(C(Cn2cccn2)C(=O)Nc2ccc(C(O)(C(F)(F)F)C(F)(F)F)cc2)cc1 (stereo not given)
IC50 [3]: 2400 nM

logD (physchem): 3.1 | microsomal CLint (in vitro): < 3 µL/min/mg | Pm [1]: 8 | Papp A→B [2]: 0.4 ×10⁻⁶ cm/s
SMILES: CCS(=O)(=O)c1ccc(C(CC(=O)NC)C(=O)Nc2ccc(C(O)(C(F)(F)F)C(F)(F)F)cc2)cc1 (stereo not given)

logD (physchem): 3 | microsomal CLint (in vitro): < 3 µL/min/mg
SMILES: CS(=O)(=O)c1ccc2c(c1)CNC2C(=O)Nc1ccc(C(O)(C(F)(F)F)C(F)(F)F)cc1 (stereo not given)

logD (physchem): 2.8 | microsomal CLint (in vitro): < 3 µL/min/mg
SMILES: CNS(=O)(=O)c1ccc2c(c1)CN(C(C)=O)C2C(=O)Nc1ccc(C(O)(C(F)(F)F)C(F)(F)F)cc1 (stereo not given)

logD (physchem): 2.5 | microsomal CLint (in vitro): 11 µL/min/mg
SMILES: COCCS(=O)(=O)c1ccc2c(c1)CN(C(C)=O)C2C(=O)Nc1ccc(C(O)(C(F)(F)F)C(F)(F)F)cc1 (stereo not given)

logD (physchem): 3.2 | microsomal CLint (in vitro): < 3 µL/min/mg | Pm [1]: 3.2 | Papp A→B [2]: 0.3 ×10⁻⁶ cm/s
SMILES: CCS(=O)(=O)c1ccc([C@@H](CC(=O)NC)C(=O)Nc2ccc(C(O)(C(F)(F)F)C(F)(F)F)cc2)cc1
IC50 [3]: > 40000 nM

logD (physchem): 1.1 | microsomal CLint (in vitro): < 3 µL/min/mg
SMILES: NCCC(=O)N1Cc2cc(S(=O)(=O)CC3CC3)ccc2C1C(=O)Nc1ccc(C(O)(C(F)(F)F)C(F)(F)F)cc1 (stereo not given)

logD (physchem): 2.9 | microsomal CLint (in vitro): < 3 µL/min/mg
SMILES: CCS(=O)(=O)c1ccc(C(NC(=O)OC)C(=O)Nc2ccc(C(O)(C(F)(F)F)C(F)(F)F)cc2)nc1 (stereo not given)
IC50 [3]: 9300 nM

logD (physchem): 2.4 | bioavailability [5]: 5% | CL [6]: 0.4 mL/min/kg | hepatocyte CLint [7]: < 1 µL/min/1e6 cells | Fa [8]: 41% | Vd [9]: 1.3 L/kg | clearance [10]: 1.9 mL/min/kg | Papp A→B (MDR1 [11]): 0.9 ×10⁻⁶ cm/s | hepatocyte CLint [12]: 2.3 µL/min/1e6 cells | Vd [13]: 2.5 L/kg | Fa [14]: 71% | Fa [15]: 42% | Fa [16]: 6% | Fa [17]: 52% | bioavailability [18]: 50% | bioavailability [19]: 35% | half-life [20]: 3.3 h | bioavailability [21]: 97% | microsomal CLint (in vitro): < 3 µL/min/mg | bioavailability [22]: 34% | fraction unbound [24]: 0.21 | CL renal [25]: 2.9 mL/min/kg | bioavailability [26]: 67% | half-life [27]: 2.7 h | Papp B→A (MDR1 [28]): 16 ×10⁻⁶ cm/s | Vd [29]: 1.9 L/kg | Fa [30]: 99% | fraction unbound [31]: 0.12 | Papp B→A [32]: 16 ×10⁻⁶ cm/s | clearance [33]: 10.5 mL/min/kg | half-life [34]: 16.6 h | clearance [35]: 12.4 mL/min/kg | fraction unbound [36]: 0.23
SMILES: CC(=O)N1Cc2cc(S(C)(=O)=O)ccc2[C@@H]1C(=O)Nc1ccc(C(O)(C(F)(F)F)C(F)(F)F)cc1
inhibition in vivo at 15 mg/kg (Mus musculus [4]): 67% | inhibition in vivo at 50 mg/kg (Mus musculus [23]): 65%
